Source: ChEMBL document CHEMBL3046442, “Synthesis and Acaricidal Activity of Bicyclic Pyrazole-3-carboxamide Derivatives” (1992)
Values after ≈ are worked out from the molar mass of the structure shown.

What was measured:
Assay type in all cases: functional
[1] = tested on: Tetranychus urticae; test: Acaricidal activity against Tetranychus urticae (two-spotted spider mite) infested kidney bean leaf assessed as mortality at 50 ppm after 5 days; details: 120 h
[2] = tested on: Tetranychus urticae; test: Acaricidal activity against Tetranychus urticae (two-spotted spider mite) infested kidney bean leaf assessed as mortality at 3.1 ppm after 5 days; details: 120 h
[3] = tested on: Tetranychus urticae; test: Acaricidal activity against Tetranychus urticae (two-spotted spider mite) infested kidney bean leaf assessed as mortality at 200 ppm after 5 days; details: 120 h
[4] = tested on: Tetranychus urticae; test: Acaricidal activity against Tetranychus urticae (two-spotted spider mite) infested kidney bean leaf assessed as mortality at 12.5 ppm after 5 days; details: 120 h
[5] = tested on: Panonychus citri; test: Adulticidal activity against adult Panonychus citri infested mandarian orange after 2 days; details: 48 h
[6] = tested on: Tetranychus urticae; test: Ovicidal activity against Tetranychus urticae (two-spotted spider mite) eggs laid on compound-treated kidney bean leaf disk measured after 7 days; details: foliar, 168 h
[7] = tested on: Panonychus citri; test: Ovicidal activity against Panonychus citri eggs laid on compound-treated mandarian orange measured after 7 days; details: 168 h
[8] = tested on: Tetranychus urticae; test: Adulticidal activity against adult Tetranychus urticae (two-spotted spider mite) infested kidney bean leaf disk after 2 days; details: foliar, 48 h

Row | SMILES | mortality at 50 ppm [1] | mortality at 3.1 ppm [2] | mortality at 200 ppm [3] | mortality at 12.5 ppm [4] | LC50 [5] | LC50 [6] | LC50 [7] | LC50 [8]
1 | Cn1nc2c(c1C(=O)NCc1ccc(C(C)(C)C)cc1)CCCC2 | 1% | 0% | 2% | 0% | – | – | – | –
2 | CC1CCCc2c1nn(C)c2C(=O)NCc1ccc(C(C)(C)C)cc1 (stereo unspecified) | 0% | 0% | 0% | 0% | – | – | – | –
3 | CC1CC(C)c2c1nn(C)c2C(=O)NCc1ccc(C(C)(C)C)cc1 (stereo unspecified) | 0% | 0% | 1% | 0% | – | – | – | –
4 | CCC1CCc2c1nn(C)c2C(=O)NCc1ccc(C(C)(C)C)cc1 (stereo unspecified) | 0% | 0% | 0% | 0% | – | – | – | –
5 | Cn1nc2c(c1C(=O)NCc1ccc([Si](C)(C)C)cc1)CCC2 | 3% | 1% | 3% | 3% | – | – | – | –
6 | CC1CCc2c1nn(C)c2C(=O)NCc1ccc(C(C)(C)C)cc1 (stereo unspecified) | 3% | 3% | 3% | 3% | 0.42 µg/mL (≈ 1.29 µM) | 1.7 µg/mL (≈ 5.22 µM) | 6.3 µg/mL (≈ 19.4 µM) | 2.1 µg/mL (≈ 6.45 µM)
7 | Cn1nc2c(c1C(=O)NCc1ccc(CC(C)(C)C)cc1)CCC2 | 1% | 0% | 3% | 0% | – | – | – | –
8 | CCC(C)c1ccc(CNC(=O)c2c3c(nn2C)CCC3)cc1 (stereo unspecified) | 3% | 0% | 3% | 1% | – | – | – | –
9 | CC(C)Cc1ccc(CNC(=O)c2c3c(nn2C)CCC3)cc1 | 0% | 0% | 1% | 0% | – | – | – | –
10 | CCCCc1ccc(CNC(=O)c2c3c(nn2C)CCC3)cc1 | 0% | 0% | 2% | 0% | – | – | – | –
11 | CC(C)c1ccc(CNC(=O)c2c3c(nn2C)CCC3)cc1 | 2% | 0% | 3% | 1% | – | – | – | –
12 | Cc1ccc(CNC(=O)c2c3c(nn2C)CCC3)cc1 | 0% | 0% | 0% | 0% | – | – | – | –
13 | Cn1nc2c(c1C(=O)NCc1ccccc1)CCC2 | 0% | 0% | 0% | 0% | – | – | – | –
14 | Cn1nc2c(c1C(=O)SCc1ccc(C(C)(C)C)cc1)CCC2 | 0% | – | 0% | – | – | – | – | –
15 | Cn1nc2c(c1C(=O)OCc1ccc(C(C)(C)C)cc1)CCC2 | 0% | – | 1% | – | – | – | – | –
16 | Cn1nc2c(c1C(=S)NCc1ccc(C(C)(C)C)cc1)CCC2 | 0% | – | 0% | – | – | – | – | –
17 | CN(Cc1ccc(C(C)(C)C)cc1)C(=O)c1c2c(nn1C)CCC2 | 0% | – | 0% | – | – | – | – | –
18 | Cn1nc2c(c1C(=O)NCCc1ccc(C(C)(C)C)cc1)CCC2 | 0% | – | 0% | – | – | – | – | –
19 | CC(C)(C)c1ccc(CNC(=O)c2c3c(nn2-c2ccccc2)CCC3)cc1 | 0% | – | 0% | – | – | – | – | –
20 | CC(C)(C)c1ccc(CNC(=O)c2c3c(nn2C(C)(C)C)CCC3)cc1 | 0% | – | 0% | – | – | – | – | –
21 | CCCCn1nc2c(c1C(=O)NCc1ccc(C(C)(C)C)cc1)CCC2 | 0% | – | 0% | – | – | – | – | –
22 | CC(C)n1nc2c(c1C(=O)NCc1ccc(C(C)(C)C)cc1)CCC2 | 0% | – | 0% | – | – | – | – | –
23 | CCn1nc2c(c1C(=O)NCc1ccc(C(C)(C)C)cc1)CCC2 | 0% | – | 0% | – | – | – | – | –
24 | Cn1nc2c(c1C(=O)NCc1ccc(C(C)(C)C)cc1)CCC2 | 3% | 2% | 3% | 3% | – | – | – | –
25 | CC(C)(C)c1ccc(CNC(=O)c2[nH]nc3c2CCC3)cc1 | 0% | – | 0% | – | – | – | – | –
26 | CCc1nn(C)c(C(=O)NCc2ccc(C(C)(C)C)cc2)c1Cl [TEBUFENPYRAD] | – | – | – | – | 0.5 µg/mL (≈ 1.5 µM) | 0.96 µg/mL (≈ 2.88 µM) | 3.9 µg/mL (≈ 11.7 µM) | 3.7 µg/mL (≈ 11.1 µM)
